Laboratory results: PubChem BioAssay AID330 (DTP/NCI, 2004)
Several values for one entry are separate records, joined by “and”; a condition that tells them apart may be missing. Equal values may be shown once. Inconclusive results and toxic doses are left out.

Tested on: P388 leukemia ip, CD2F1 mice, survival T/C
Assay: NCI In Vivo Anticancer Drug Screen. Data for tumor model P388 Leukemia (intraperitoneal) in CD2F1 (CDF1) mice
Settings: endpoint: median survival time, higher = longer survival
Summary of the method: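 Mice carrying the transplanted tumor received test compound or vehicle. Survival was recorded in each group, and the value is the treated-group measurement divided by that of the vehicle-treated control group.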

[1] = dose: 12.5 mg/kg/injection, schedule: Q01DX005 (ip), vehicle: Klucel (hydroxypropylcellulose) (HPC)
[2] = dose: 100.0 mg/kg/injection, schedule: Q04DX003 (ip), vehicle: saline with Tween-80
[3] = dose: 50.0 mg/kg/injection, schedule: Q01DX009 (ip), vehicle: Klucel (hydroxypropylcellulose) (HPC)
[4] = dose: 100.0 mg/kg/injection, schedule: Q01DX009 (ip), vehicle: Klucel (hydroxypropylcellulose) (HPC)
[5] = dose: 50.0 mg/kg/injection, schedule: Q01DX005 (ip), vehicle: Klucel (hydroxypropylcellulose) (HPC)
[6] = dose: 100.0 mg/kg/injection, schedule: Q01DX005 (ip), vehicle: Klucel (hydroxypropylcellulose) (HPC)
[7] = dose: 50.0 mg/kg/injection, schedule: Q01DX009 (ip), vehicle: saline
[8] = dose: 100.0 mg/kg/injection, schedule: Q01DX009 (ip), vehicle: saline
[9] = dose: 60.0 mg/kg/injection, schedule: Q01DX005 (ip), vehicle: saline with Tween-80
[10] = dose: 120.0 mg/kg/injection, schedule: Q01DX005 (ip), vehicle: saline with Tween-80
[11] = dose: 240.0 mg/kg/injection, schedule: Q01DX005 (ip), vehicle: saline with Tween-80
[12] = dose: 12.5 mg/kg/injection, schedule: Q01DX009 (ip), vehicle: Klucel (hydroxypropylcellulose) (HPC)
[13] = dose: 25.0 mg/kg/injection, schedule: Q01DX009 (ip), vehicle: Klucel (hydroxypropylcellulose) (HPC)

Compound: C=CC(=NC(C)(C)C)Nc1ccccc1OC
- T/C (dose: 1.56 mg/kg/injection, schedule: Q01DX009 (ip), vehicle: saline): 99 % of control and 89 % of control
- T/C (dose: 3.12 mg/kg/injection, schedule: Q01DX005 (ip), vehicle: Klucel (hydroxypropylcellulose) (HPC)): 117 % of control
- T/C (dose: 3.12 mg/kg/injection, schedule: Q01DX009 (ip), vehicle: saline): 111 % of control and 86 % of control and 98 % of control
- T/C (dose: 6.25 mg/kg/injection, schedule: Q01DX005 (ip), vehicle: Klucel (hydroxypropylcellulose) (HPC)): 117 % of control
- T/C (dose: 6.25 mg/kg/injection, schedule: Q01DX009 (ip), vehicle: saline): 102 % of control and 120 % of control and 95 % of control
- T/C [1]: 114 % of control

Compound: N#CC(CC[N+](=O)[O-])(c1ccccc1)C(c1ccccc1)[N+](=O)[O-] (stereo unspecified)
- T/C (dose: 12.5 mg/kg/injection, schedule: Q01DX001 (ip), vehicle: saline with Tween-80): 87 % of control
- T/C (dose: 25.0 mg/kg/injection, schedule: Q01DX001 (ip), vehicle: saline with Tween-80): 96 % of control

Compound: Cc1ccnc(NCCCCCCNc2nccc(C)n2)n1
- T/C [2]: 87 % of control
- T/C (dose: 200.0 mg/kg/injection, schedule: Q04DX003 (ip), vehicle: saline with Tween-80): 98 % of control
- T/C (dose: 400.0 mg/kg/injection, schedule: Q04DX003 (ip), vehicle: saline with Tween-80): 91 % of control

Compound: CCCCN=Cc1ccccc1O.CCCCN=Cc1ccccc1O.[Zn]
- T/C [3]: 98 % of control
- T/C [4]: 112 % of control

Compound: CC(=O)OCC12CCC(C)=CC1OC1C(OS(C)(=O)=O)C(=O)C2(C)C12CO2 (stereo unspecified)
- T/C (dose: 0.5 mg/kg/injection, schedule: Q01DX009 (ip), vehicle: saline): 100 % of control
- T/C (dose: 1.0 mg/kg/injection, schedule: Q01DX009 (ip), vehicle: saline): 103 % of control
- T/C (dose: 2.0 mg/kg/injection, schedule: Q01DX009 (ip), vehicle: saline): 109 % of control
- T/C (dose: 4.0 mg/kg/injection, schedule: Q01DX009 (ip), vehicle: saline): 110 % of control

Compound: C=CCCCCCCCCC(=O)N1C(=O)C(c2ccccc2)(c2ccccc2)CSC1=S
- T/C [3]: 91 % of control
- T/C [4]: 92 % of control
- T/C (dose: 200.0 mg/kg/injection, schedule: Q01DX009 (ip), vehicle: Klucel (hydroxypropylcellulose) (HPC)): 90 % of control

Compound: COc1ccc2[nH]c(=O)c(C(C)=O)c(O)c2c1
- T/C (dose: 50.0 mg/kg/injection, schedule: Q01DX005 (ip), vehicle: saline with Tween-80): 103 % of control
- T/C (dose: 100.0 mg/kg/injection, schedule: Q01DX005 (ip), vehicle: saline with Tween-80): 105 % of control
- T/C (dose: 200.0 mg/kg/injection, schedule: Q01DX005 (ip), vehicle: saline with Tween-80): 101 % of control

Compound: CC[N+](CC)(CC)Cc1ccccc1
- T/C (dose: 6.25 mg/kg/injection, schedule: Q04DX003 (ip), vehicle: saline sonified): 109 % of control
- T/C (dose: 12.5 mg/kg/injection, schedule: Q04DX003 (ip), vehicle: saline sonified): 109 % of control
- T/C (dose: 25.0 mg/kg/injection, schedule: Q04DX003 (ip), vehicle: saline sonified): 109 % of control

Compound: COc1ccc(C)cc1N=NC1C(=O)N(C(=O)CC(=O)Nc2ccccc2Cl)N=C1C (stereo unspecified)
- T/C [5]: 96 % of control
- T/C [6]: 95 % of control

Compound: CN(c1ccccc1)c1cc(O)[nH]c(=O)c1
- T/C (dose: 12.5 mg/kg/injection, schedule: Q01DX009 (ip), vehicle: water): 96 % of control
- T/C (dose: 25.0 mg/kg/injection, schedule: Q01DX009 (ip), vehicle: water): 111 % of control
- T/C (dose: 50.0 mg/kg/injection, schedule: Q01DX009 (ip), vehicle: water): 99 % of control
- T/C (dose: 100.0 mg/kg/injection, schedule: Q01DX009 (ip), vehicle: water): 100 % of control
- T/C (dose: 200.0 mg/kg/injection, schedule: Q01DX009 (ip), vehicle: water): 97 % of control

Compound: Clc1ccc2c(c1)[N+](=c1ccc3nc4cc(Cl)ccc4sc-3c1)c1ccccc1S2.[Cl][Cu][Cl]
- T/C (dose: 60.0 mg/kg/injection, schedule: Q01DX005 (ip), vehicle: Klucel (hydroxypropylcellulose) (HPC)): 95 % of control
- T/C (dose: 120.0 mg/kg/injection, schedule: Q01DX005 (ip), vehicle: Klucel (hydroxypropylcellulose) (HPC)): 91 % of control
- T/C (dose: 240.0 mg/kg/injection, schedule: Q01DX005 (ip), vehicle: Klucel (hydroxypropylcellulose) (HPC)): 88 % of control

Compound: C/C=C1\CC2(OC1=O)C(=O)NC(=O)NC2=O
- T/C [7]: 103 % of control
- T/C [8]: 94 % of control

Compound: CC(C)(C)SC(=S)SCC(=O)c1ccc(F)cc1
- T/C [9]: 102 % of control
- T/C [10]: 103 % of control
- T/C [11]: 102 % of control

Compound: NC(=S)N/N=C/c1ccncn1
- T/C (dose: 6.25 mg/kg/injection, schedule: Q01DX009 (ip), vehicle: Klucel (hydroxypropylcellulose) (HPC)): 93 % of control
- T/C (dose: 6.25 mg/kg/injection, schedule: Q04DX003 (ip), vehicle: Klucel (hydroxypropylcellulose) (HPC)): 111 % of control
- T/C [12]: 92 % of control
- T/C (dose: 12.5 mg/kg/injection, schedule: Q04DX003 (ip), vehicle: Klucel (hydroxypropylcellulose) (HPC)): 101 % of control
- T/C (dose: 12.5 mg/kg/injection, schedule: Q04DX003 (ip), vehicle: saline with Tween-80): 123 % of control
- T/C [13]: 100 % of control
- T/C (dose: 25.0 mg/kg/injection, schedule: Q04DX003 (ip), vehicle: Klucel (hydroxypropylcellulose) (HPC)): 111 % of control
- T/C (dose: 50.0 mg/kg/injection, schedule: Q04DX003 (ip), vehicle: Klucel (hydroxypropylcellulose) (HPC)): 112 % of control

Compound: Cc1cc(-c2c(C)[nH]n(-c3cc(C)c4cc(F)ccc4n3)c2=O)n(-c2cc(C)c3cc(F)ccc3n2)n1
- T/C [9]: 102 % of control
- T/C [10]: 101 % of control
- T/C [11]: 98 % of control

Compound: NC1=NCc2c(sc3c2CCCC3)N1
- T/C [1]: 104 % of control
- T/C (dose: 25.0 mg/kg/injection, schedule: Q01DX005 (ip), vehicle: Klucel (hydroxypropylcellulose) (HPC)): 104 % of control
- T/C [5]: 98 % of control and 103 % of control

Compound: [O-][N+]1(CC[N+]2([O-])CCCCC2)CCCCC1
- T/C (dose: 60.0 mg/kg/injection, schedule: Q01DX005 (ip), vehicle: saline): 97 % of control
- T/C (dose: 120.0 mg/kg/injection, schedule: Q01DX005 (ip), vehicle: saline): 100 % of control
- T/C (dose: 240.0 mg/kg/injection, schedule: Q01DX005 (ip), vehicle: saline): 97 % of control

Compound: Cc1[nH]c(=O)n(C(C)C)c(=O)c1Br
- T/C (dose: 100.0 mg/kg/injection, schedule: Q01DX001 (ip), vehicle: saline sonified): 100 % of control
- T/C (dose: 200.0 mg/kg/injection, schedule: Q01DX001 (ip), vehicle: saline sonified): 100 % of control
- T/C (dose: 400.0 mg/kg/injection, schedule: Q01DX001 (ip), vehicle: saline sonified): 100 % of control

Compound: O=C(N/N=C/c1cccc(C(F)(F)F)c1)c1ccncc1
- T/C [9]: 103 % of control
- T/C [10]: 97 % of control
- T/C [11]: 90 % of control

Compound: C=C1CC2(CC3CCC2(C)C3(C)C)OC1=O (stereo unspecified)
- T/C (dose: 100.0 mg/kg/injection, schedule: Q01DX001 (ip), vehicle: saline): 98 % of control
- T/C (dose: 200.0 mg/kg/injection, schedule: Q01DX001 (ip), vehicle: saline): 99 % of control
- T/C (dose: 400.0 mg/kg/injection, schedule: Q01DX001 (ip), vehicle: saline): 99 % of control

Compound: COC(=O)COC(=O)CCCCC(=O)OCC(=O)OC
- T/C [7]: 111 % of control
- T/C [8]: 109 % of control
- T/C (dose: 200.0 mg/kg/injection, schedule: Q01DX009 (ip), vehicle: saline): 103 % of control

Compound: Nc1ncc[n+]2c(COCCCl)[nH]nc12
- T/C (dose: 100.0 mg/kg/injection, schedule: Q01DX001 (ip), vehicle: Klucel (hydroxypropylcellulose) (HPC)): 92 % of control
- T/C (dose: 200.0 mg/kg/injection, schedule: Q01DX001 (ip), vehicle: Klucel (hydroxypropylcellulose) (HPC)): 92 % of control

Compound: Cc1csc(N)n1
- T/C (dose: 100.0 mg/kg/injection, schedule: Q04DX002 (ip), vehicle: saline): 97 % of control
- T/C (dose: 200.0 mg/kg/injection, schedule: Q04DX002 (ip), vehicle: saline): 95 % of control
- T/C (dose: 400.0 mg/kg/injection, schedule: Q04DX002 (ip), vehicle: saline): 101 % of control

Compound: CCP(=S)(CC)[S][Sn]([CH3])([CH3])[S]P(=S)(CC)CC
- T/C [5]: 118 % of control
- T/C [6]: 115 % of control

Compound: CN1CCOC(=O)C(C#N)=C1c1ccccc1
- T/C [9]: 110 % of control
- T/C [10]: 108 % of control
- T/C [11]: 98 % of control

Compound: COc1cc(Cc2nccc3cc(OC)c(OC)cc23)c(C(C)=O)cc1OC
- T/C (dose: 3.13 mg/kg/injection, schedule: Q01DX009 (ip), vehicle: saline sonified): 123 % of control
- T/C [12]: 105 % of control
- T/C (dose: 12.5 mg/kg/injection, schedule: Q01DX009 (ip), vehicle: saline sonified): 161 % of control
- T/C [13]: 106 % of control
- T/C [3]: 113 % of control
- T/C [2]: 100 % of control
